# Legend:
# [1] = system: AA release (cPLA2) in neutrophils; assay: [3H]-labeled arachidonic acid release in neutrophils; assay type: cell-based, human; conditions: [3H]AA-pre-labelled neutrophils; diflapolin 1 µM, RSC-3388 10 µM
# Protocol: Freshly isolated human neutrophils were resuspended in RPMI 1640 medium to a final cell density of 10^7 cells/mL and incubated with 0.5 µCi/mL of [^3H]-labeled arachidonic acid ([^3H]-AA), corresponding to a concentration of 5 nM of the fatty acid, for 2 hrs (37 °C, 5% CO2). Cells were washed twice to remove unincorporated [^3H]-AA and resuspended in PBS containing glucose (0.1%), fatty acid-free BSA (2 mg/mL) and CaCl2 (1 mM). […] The reaction was stopped on ice and cells were centrifuged at 1,200 rpm (10 min, 4 °C). The collected supernatants were combined with 2 mL of liquid scintillation counting solution (Rotiszint eco plus, Carl Roth, Karlsruhe, Germany) and assayed for radioactivity by scintillation counting (Micro Beta Trilux, Perkin Elmer, Waltham, MA).
# recombinant LTA4-H = system: recombinant LTA4-H; design: method as in PMID 11805219; conditions: read-out: IC50 against recombinant LTA4-H; cited from earlier work
# sEH in HepG2 cells = molecular target: T1, sEH in HepG2 cells (Homo sapiens, UniProt P34913); assay: 14,15-DiHETrE formation in HepG2 cells (cell-based sEH assay)
# T1 construct: sEH is constitutively expressed in the human liver cancer cell line HepG2; endogenous in cells; host or cells: HepG2
# T1 sequence (P34913 1-555): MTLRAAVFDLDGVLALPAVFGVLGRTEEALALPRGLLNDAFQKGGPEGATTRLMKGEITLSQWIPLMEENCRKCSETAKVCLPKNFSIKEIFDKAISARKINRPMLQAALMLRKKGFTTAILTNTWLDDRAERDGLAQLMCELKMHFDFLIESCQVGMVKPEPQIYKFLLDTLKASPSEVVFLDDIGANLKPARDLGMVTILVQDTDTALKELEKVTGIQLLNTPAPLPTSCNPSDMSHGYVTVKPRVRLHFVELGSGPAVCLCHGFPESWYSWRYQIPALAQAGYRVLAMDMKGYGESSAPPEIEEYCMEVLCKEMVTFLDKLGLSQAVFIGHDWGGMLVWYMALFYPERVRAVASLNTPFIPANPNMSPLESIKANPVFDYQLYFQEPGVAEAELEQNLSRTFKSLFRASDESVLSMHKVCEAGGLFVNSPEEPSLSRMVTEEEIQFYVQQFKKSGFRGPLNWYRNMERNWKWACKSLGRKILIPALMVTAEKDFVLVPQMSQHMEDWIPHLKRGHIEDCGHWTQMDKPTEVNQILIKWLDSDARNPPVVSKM
# Protocol: To assay the activity of sEH in a cell-based model, HepG2 cells were harvested by trypsinization, pelleted (1,200 rpm, 5 min, 4 °C) and resuspended in PGC buffer to a final concentration of 1.5 × 10^6 cells/mL. […] Briefly, samples were acidified with four volumes of MilliQ water pH 3.5 containing PBS-HCl and subjected to Waters Sep-Pak® Vac 6cc columns (Waters, Milford, MA, USA), washed once with MilliQ and hexane, and eluted with methylformiate. The nitrogen-dried samples were dissolved in 50% methanol, and 14,15-DiHETrE formation was measured by UPLC-MS/MS using an Acquity™ UPLC system (Waters, Milford, MA, USA) and a QTRAP 5500 Mass Spectrometer (ABSciex, Darmstadt, Germany) equipped with a Turbo V™ Source and electrospray ionization (ESI). […] Ion spray voltage was set to 4000 V, the heater temperature to 500 °C, the declustering potential to 50–80 eV, the entrance potential to 10 eV, the collision cell exit potential to 10–13 eV, collision energies of 10 eV, the spray gas pressure to 40 psi, medium collision gas and the curtain gas pressure to 35 psi.
# human recombinant LTA4-H = molecular target: T2, human recombinant LTA4-H (Homo sapiens, UniProt P09960); assay: LTA4 hydrolase activity, co-incubation of isolated 5-LOX and LTA4-H; assay type: biochemical; conditions: diflapolin up to 10 µM, AUDA 10 µM, SC57461A 0.3 µM, zileuton 3 µM
# T2 construct: gift of Dr. E. Proschak, Goethe University, Frankfurt
# T2 sequence (P09960 2-611 limits assumed): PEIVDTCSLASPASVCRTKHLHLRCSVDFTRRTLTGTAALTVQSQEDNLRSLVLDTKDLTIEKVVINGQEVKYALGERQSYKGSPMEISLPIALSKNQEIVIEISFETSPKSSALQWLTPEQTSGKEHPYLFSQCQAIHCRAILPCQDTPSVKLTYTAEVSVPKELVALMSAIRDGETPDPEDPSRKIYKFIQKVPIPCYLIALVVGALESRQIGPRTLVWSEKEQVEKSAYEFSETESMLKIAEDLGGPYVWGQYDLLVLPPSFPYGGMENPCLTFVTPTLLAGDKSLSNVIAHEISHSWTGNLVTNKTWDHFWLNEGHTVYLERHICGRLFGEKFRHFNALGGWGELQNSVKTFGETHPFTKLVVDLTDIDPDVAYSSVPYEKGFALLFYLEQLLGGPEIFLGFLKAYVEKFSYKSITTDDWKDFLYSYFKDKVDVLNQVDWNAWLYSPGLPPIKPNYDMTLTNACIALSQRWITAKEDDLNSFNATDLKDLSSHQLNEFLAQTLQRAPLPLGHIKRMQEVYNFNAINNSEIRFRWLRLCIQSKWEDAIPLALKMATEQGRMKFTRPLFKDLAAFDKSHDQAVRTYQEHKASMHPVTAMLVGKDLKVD
# Protocol: In order to determine the activity of LTA4-H, aliquots of human recombinant 5-LOX (0.5 µg) and 10 µg of human recombinant LTA4-H (kindly provided by Dr. E. Proschak, Goethe University, Frankfurt, Germany) were suspended in 1 mL PBS containing 1 mM EDTA and pre-incubated with test compounds or vehicle (0.1% DMSO) for 10 min on ice. The specific LTA4-H inhibitor SC57461A (0.3 µM) was used as reference drug. Subsequently, incubations were stimulated with 20 µM AA and 2 mM CaCl2 for additional 10 min at 37 °C. The reaction was stopped by 1 volume ice-cold methanol, 530 µL acidified PBS and 200 ng of PGB1 as internal standard were added and subjected to solid phase extraction. All LTB4 isomers were analyzed by HPLC as described above.
# 5-LOX/FLAP complex = molecular target: T3, 5-LOX/FLAP complex (Homo sapiens, UniProt P20292); assay: Proximity ligation assay of 5-LOX/FLAP complex assembly in monocytes; assay type: cell-based; conditions: diflapolin 1 µM, MK886 0.3 µM, zileuton 3 µM
# T3 construct: endogenous in cells; host or cells: freshly isolated human monocytes (immunofluorescence also in neutrophils)
# T3 sequence (P20292 1-161): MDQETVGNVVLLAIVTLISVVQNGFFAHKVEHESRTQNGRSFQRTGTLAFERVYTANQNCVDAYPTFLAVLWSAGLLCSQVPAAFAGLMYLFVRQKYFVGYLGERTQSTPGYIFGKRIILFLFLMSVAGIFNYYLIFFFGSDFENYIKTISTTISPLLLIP
# Protocol: In situ protein interaction of 5-LOX and FLAP was analyzed by proximity ligation assay as described before[37] and referring to the manufacturer’s protocol. In brief, freshly isolated monocytes were treated as described for IF above. Overnight incubations with primary antibodies were then treated for 1 h (37 °C) with oligonucleotide-labeled specific secondary antibodies (PLA probes anti-mouse MINUS and anti-rabbit PLUS). Formation of circled DNA sequences was induced by addition of ligase and oligonucleotide mixture (30 min at 37 °C). Rolling-circle-amplification of newly generated DNA template was performed (90 min, 37 °C) including hybridization of fluorescently-labeled oligonucleotides within the formed DNA strands, resulting in visualization of protein-protein interactions recognized as magenta-stained dots. Nuclear DNA staining with DAPI and image acquisition was performed as described above. Overview images were obtained using a Plan Neofluar 40/1.30 Oil (DIC III) objective (Carl Zeiss).
# [2] = system: 5-LOX activity in monocytes, neutrophils; assay: cells; conditions: Homo sapiens, read-out: IC50 5-LOX activity in cell-based assays
# Protocol: In order to examine 5-LOX product formation in intact human neutrophils and monocytes, freshly isolated cells were resuspended in PBS buffer containing 0.1% glucose and 1 mM CaCl2 (PGC buffer) to a final cell density of 5 × 10^6 or 2 × 10^6, respectively. […] 5-LOX product formation was stopped by addition of one volume of ice-cold methanol, samples were subjected to solid phase extraction after addition of 200 ng PGB1 as internal standard and 5-LOX products were analyzed by RP-HPLC as described above.
# [3] = molecular target: T4, co-localization of 5-LOX with FLAP (Homo sapiens, UniProt P20292); assay: Immunofluorescence microscopy of 5-LOX subcellular redistribution / co-localization with FLAP; assay type: cell-based; conditions: human neutrophils or monocytes; diflapolin 1 µM, MK886 0.3 µM, zileuton 3 µM
# T4 construct: endogenous in cells; host or cells: freshly isolated human monocytes (immunofluorescence also in neutrophils)
# T4 sequence (P20292 1-161): T3 sequence (P20292 1-161)
# Protocol: The incubations were stopped by paraformaldehyde fixation (4%, 20 min, RT) and cells were permeabilized using 100% ice-cold acetone (5 min, 4 °C). Blocking with non-immune goat serum (30 min, RT) was performed prior to overnight incubation (4 °C) with primary monoclonal-mouse-anti-5-LOX antibody (1:100 dilution, a generous gift from Dr. D. Steinhilber, Goethe University Frankfurt, Germany) and polyclonal-rabbit-anti-FLAP antibody (5 µg/mL, Abcam, Cambridge, UK). […] Cells were visualized by a Zeiss Axiovert 200 M microscope, and a Plan Neofluar × 100/1.30 Oil (DIC III) objective (Carl Zeiss, Jena, Germany) and image acquisition was performed using an AxioCam MR camera (Carl Zeiss).
# monocytes = assay: Acute cytotoxicity, MTT assay in monocytes; assay type: cell-based, human; conditions: 24 or 48 hrs; diflapolin 10 µM, staurosporine 3 µM
# Protocol: Acute cytotoxicity of the compounds was determined using freshly isolated monocytes. Cells (0.2 × 10^6) per sample were seeded in 100 µL buffer on 96-well plates and treated with the test compounds and appropriate controls for 24 or 48 hrs (37 °C, 5% CO2). After addition of MTT (5 mg/mL) for 2 h (37 °C, 5% CO2), cells were lysed by SDS treatment (10%, pH 4.5) for 16–20 hrs and formazan formation was determined by measurement of absorbance at 570 nm.
smiles,measurement,setting,value
CC(C)CN(Cc1ccccc1-c1ccccc1)[C@@H]1C[C@@H](CNC(=O)/C=C/c2ccc(/C=C3\SC(=O)NC3=O)cc2)N(C(=O)c2ccccc2C(=O)c2ccc(F)cc2F)C1 [RSC-3388],release of AA upon A23187-stimulation,[1],suppressed AA liberation
"CN(CCCOc1ccc(Cc2ccccc2)cc1)CCC(=O)O.Cl [SC57461A, 3-[methyl[3-[4-(phenylmethyl)phenoxy]propyl]amino]propanoic acid HCl]",IC50,recombinant LTA4-H,100 nM
same,effect on sEH in the cell-based sEH assay,sEH in HepG2 cells,no impact
same,effect on LTA4-H activity (LTB4 formation),human recombinant LTA4-H,blocked LTB4 biosynthesis
CC(c1cc2ccccc2s1)N(O)C(N)=O (stereo not shown) [zileuton],5-LOX/FLAP complex assembly (PLA),5-LOX/FLAP complex,failed
same,IC50,[2],1500 nM
same,effect on LTA4-H activity (LTB4 formation),human recombinant LTA4-H,reduced the formation of all LTB4 isomers
same,co-localization of 5-LOX with FLAP,[3],neither diflapolin nor the FLAP inhibitor MK886 or the 5-LOX inhibitor zileuton prevented co-localization
CN[C@@H]1C[C@H]2O[C@@](C)([C@@H]1OC)n1c3ccccc3c3c4c(c5c6ccccc6n2c5c31)C(=O)NC4 [staurosporine],"viability of monocytes, MTT assay",monocytes,strongly impaired cell viability
O=C(O)CCCCCCCCCCCNC(=O)NC12CC3CC(CC(C3)C1)C2 [AUDA],effect on LTA4-H activity (LTB4 formation),human recombinant LTA4-H,showed the same pattern as diflapolin
